Fold induction data for 28 molecules are collected here from patent US10766869B2, “Triazoles for the treatment of demyelinating dieases” (Vertex Pharmaceuticals Incorporated, priority 2015, dated 2020).

Where two headings read alike, the source gives them in different places.

The test system of the assay is primary rat mixed cortical cells. Kind of assay: In vitro myelination assay (MBP positive myelin strands, fold myelin pixels above background). Format: cell-based. The settings on record: Rattus norvegicus; for fold induction at 1 µM: 1.0 μM compound; for fold induction at 10 µM: 10.0 μM compound. The procedure, abridged:
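Read-out is total MBP-positive myelin strand pixels per well, detected by custom ridge-tracing software and reported as fold over untreated baseline. Primary P1 rat mixed cortical cells received compound (1.0 or 10.0 μM) for 14 days, with medium half-replaced on days 6 and 10. Standard deviation was taken across all replicates.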

Where [1] appears, read: read-out: Fold myelin pixels above background relative to baseline of no added compound.
Setting [2] is: relative to baseline of no added compound, read-out: Fold myelin pixels above background.
Setting [3] is: relative to baseline of no added compound, read-out: Fold myelin pixels above background, 1.0 μM.
[4] abbreviates: relative to baseline of no added compound, read-out: Fold myelin pixels above background, 10.0 μM.

On to `Cc1cc(Nc2ncn(-c3cc(F)cc(F)c3)n2)cc(N2CCOC3(CCOCC3)CC2)c1` [Compound 906, 1-(3,5-difluorophenyl)-N-[3-(3,7-dioxa-10-azaspiro[5.6]dodecan-10-yl)-5-methyl-phenyl]-1,2,4-triazol-3-amine], for which, under setting [1], the fold induction at 1 µM fell in the range of 10 to 100 and the fold induction at 10 µM lay within 1 to 10.

On to `N#Cc1cc(N2CCN(C3COC3)CC2)cc(Nc2ncn(-c3cc(F)cc(F)c3)n2)n1` [Compound 707, 6-[[1-(3,5-difluorophenyl)-1,2,4-triazol-3-yl]amino]-4-[4-(oxetan-3-yl)piperazin-1-yl]pyridine-2-carbonitrile], for which, under setting [2], the fold induction at 1 µM is no more than 1 and the fold induction at 10 µM is no more than 1.

With `Cc1cc(Nc2ncn(-c3cccc(F)c3)n2)cc(N2CC(N3CCOCC3)C2)c1` [Compound 721, 1-(3-fluorophenyl)-N-[3-methyl-5-(3-morpholinoazetidin-1-yl)phenyl]-1,2,4-triazol-3-amine], under setting [2], the fold induction at 1 µM fell in the range of 10 to 100 and the fold induction at 10 µM is no more than 1.

Consider `CCc1cc(Nc2ncn(-c3cccc(SC)c3)n2)cc(N2CCN(C3COC3)CC2)c1` [Compound 463, N-[3-ethyl-5-[4-(oxetan-3-yl)piperazin-1-yl]phenyl]-1-(3-methylsulfanylphenyl)-1,2,4-triazol-3-amine], for which, under setting [2], the fold induction at 1 µM fell in the range of 1 to 10 and the fold induction at 10 µM was no more than 1.

With `Cc1cc(Nc2ncn(-c3cc(F)cc(F)c3)n2)cc([C@@]2(C)CN(C3COC3)CCO2)c1` (single isomer, unassigned) [Compound 667], under setting [2], the fold induction at 1 µM is 10 to 100 and the fold induction at 10 µM fell in the range of 1 to 10.

For `CCc1cc(Nc2ncn(-c3ccnc(SC)n3)n2)cc(N2CCN(C3COC3)CC2)c1` [Compound 132, N-[3-ethyl-5-[4-(oxetan-3-yl)piperazin-1-yl]phenyl]-1-(2-methylsulfanylpyrimidin-4-yl)-1,2,4-triazol-3-amine], under setting [3], the fold induction at 1 µM lay within 1 to 10. The fold induction at 10 µM under setting [4] was 1 to 10.

In the case of `CCc1cc(Nc2ncn(-c3ccc(F)cc3)n2)cc(N2CCN(C3(C)COC3)CC2)c1` [Compound 802, N-[3-ethyl-5-[4-(3-methyloxetan-3-yl)piperazin-1-yl]phenyl]-1-(4-fluorophenyl)-1,2,4-triazol-3-amine], under setting [1], the fold induction at 1 µM lay in the range of 10 to 100 and the fold induction at 10 µM was no more than 1.

For the molecule `Cc1cc(Nc2ncn(-c3ccc(F)c(F)c3)n2)cc(OC2CCN(C3COC3)CC2)c1` [Compound 384, 1-(3,4-difluorophenyl)-N-[3-methyl-5-[[1-(oxetan-3-yl)-4-piperidyl]oxy]phenyl]-1,2,4-triazol-3-amine], the fold induction at 1 µM under setting [3] fell in the range of 100 to 1000. The fold induction at 10 µM under setting [4] is 100 to 1000.

As to `COc1cc(Nc2ncn(-c3cc(F)cc(C(F)(F)F)c3)n2)cc(N2CCN(C3COC3)CC2)c1` [Compound 754, 1-[3-fluoro-5-(trifluoromethyl)phenyl]-N-[3-methoxy-5-[4-(oxetan-3-yl)piperazin-1-yl]phenyl]-1,2,4-triazol-3-amine], under setting [2], the fold induction at 1 µM lay within 10 to 100 and the fold induction at 10 µM was in the range of 1 to 10.

For the molecule `Cc1cc(Nc2ncn(-c3ccccn3)n2)nc(N2CC(N3CCOCC3)C2)c1` [Compound 503, 4-methyl-6-(3-morpholinoazetidin-1-yl)-N-[1-(2-pyridyl)-1,2,4-triazol-3-yl]pyridin-2-amine], under setting [2], the fold induction at 1 µM lay within 1 to 10 and the fold induction at 10 µM was no more than 1.

Consider `Cc1cc(Nc2ncn(-c3cc(F)cc(F)c3F)n2)cc(N2CCN(C3COC3)CC2)c1` [Compound 484, N-[3-methyl-5-[4-(oxetan-3-yl)piperazin-1-yl]phenyl]-1-(2,3,5-trifluorophenyl)-1,2,4-triazol-3-amine], for which, under setting [2], the fold induction at 1 µM is no more than 1 and the fold induction at 10 µM is no more than 1.

Turning to `c1ccc(-n2cnc(Nc3cc(C4CC4)cc(N4CCN(C5COC5)CC4)c3)n2)cc1` [Compound 47, N-[3-cyclopropyl-5-[4-(oxetan-3-yl)piperazin-1-yl]phenyl]-1-phenyl-1,2,4-triazol-3-amine], the fold induction at 1 µM under setting [3] lay within 100 to 1000. Besides, the fold induction at 10 µM under setting [4] is no more than 1.

In the case of `Cc1cc(Nc2ncn(-c3cc(F)cc(F)c3)n2)cc(N2CCN(CCCO)CC2)c1` [Compound 990, 3-[4-[3-[[1-(3,5-difluorophenyl)-1,2,4-triazol-3-yl]amino]-5-methyl-phenyl]piperazin-1-yl]propan-1-ol], under setting [1], the fold induction at 1 µM was no more than 1 and the fold induction at 10 µM is no more than 1.

As for `Cc1cc(Nc2ncn(-c3ccc(F)c(F)c3)n2)c(F)c(OC2CCOC2)c1` (centres unmarked) [Compound 978, 1-(3,4-difluorophenyl)-N-(2-fluoro-5-methyl-3-tetrahydrofuran-3-yloxy-phenyl)-1,2,4-triazol-3-amine], under setting [1], the fold induction at 1 µM lay within 10 to 100 and the fold induction at 10 µM is 1 to 10.

Regarding `Cc1cc(Nc2ncn(-c3cc(F)cc(F)c3)n2)cc(N2CCC3OCC3C2)c1` (centres unmarked) [Compound 1057, 1-(3,5-difluorophenyl)-N-[3-methyl-5-(8-oxa-4-azabicyclo[4.2.0]octan-4-yl)phenyl]-1,2,4-triazol-3-amine], under setting [1], the fold induction at 1 µM is 1 to 10 and the fold induction at 10 µM is no more than 1.

`Cc1cc(N2CCN(C3COC3)CC2)cc(Nc2ncn(-c3cnccn3)n2)c1C` [Compound 470, N-[2,3-dimethyl-5-[4-(oxetan-3-yl)piperazin-1-yl]phenyl]-1-pyrazin-2-yl-1,2,4-triazol-3-amine]: under setting [2], the fold induction at 1 µM was in the range of 10 to 100 and the fold induction at 10 µM is 100 to 1000.

Turning to `Cc1cc(Nc2ncn(-c3cccnc3)n2)cc(NC2CCN(C3COC3)CC2)c1` [Compound 342, 5-methyl-N1-[1-(oxetan-3-yl)-4-piperidyl]-N3-[1-(3-pyridyl)-1,2,4-triazol-3-yl]benzene-1,3-diamine], the fold induction at 1 µM under setting [3] was in the range of 1000 to 10000. For the same molecule, under setting [4], the fold induction at 10 µM was in the range of 10 to 100.

`Cc1cc(Nc2ncn(-c3ccc(F)c(F)c3)n2)cc(N2CC(N3CCCOCC3)C2)c1` [Compound 659, 1-(3,4-difluorophenyl)-N-[3-methyl-5-[3-(1,4-oxazepan-4-yl)azetidin-1-yl]phenyl]-1,2,4-triazol-3-amine]: under setting [2], the fold induction at 1 µM lay within 10 to 100 and the fold induction at 10 µM fell in the range of 10 to 100.

As for `Fc1cc(Nc2ncn(-c3cccc(F)c3)n2)cc(C2CCN(C3COC3)C2)c1` (centres unmarked) [Compound 230, N-[3-fluoro-5-[1-(oxetan-3-yl)pyrrolidin-3-yl]phenyl]-1-(3-fluorophenyl)-1,2,4-triazol-3-amine], the fold induction at 1 µM under setting [3] was in the range of 1000 to 10000. For the same molecule, the fold induction at 10 µM under setting [4] is no more than 1.

Consider `Cc1cc(Nc2ncn(-c3cc(F)cc(F)c3)n2)c(F)c(NC2CCOCC2)c1` [Compound 810, N3-[1-(3,5-difluorophenyl)-1,2,4-triazol-3-yl]-2-fluoro-5-methyl-N1-tetrahydropyran-4-yl-benzene-1,3-diamine], for which, under setting [1], the fold induction at 1 µM was in the range of 1 to 10 and the fold induction at 10 µM lay within 1 to 10.

Turning to `Cc1cc(Nc2ncn(-c3ccccc3)n2)cc(N2CCN(C3CCOC3)CC2)c1` (centres unmarked) [Compound 434, N-[3-methyl-5-(4-tetrahydrofuran-3-ylpiperazin-1-yl)phenyl]-1-phenyl-1,2,4-triazol-3-amine], under setting [2], the fold induction at 1 µM lay in the range of 1000 to 10000 and the fold induction at 10 µM is 1000 to 10000.

As for `Cc1cc(C#CC2CC2)cc(Nc2ncn(-c3cccc(F)c3)n2)c1` [Compound 769, N-[3-(2-cyclopropylethynyl)-5-methyl-phenyl]-1-(3-fluorophenyl)-1,2,4-triazol-3-amine], under setting [2], the fold induction at 1 µM lay in the range of 1 to 10 and the fold induction at 10 µM was no more than 1.

As to `Cc1cc(Nc2ncn(-c3cc(F)cc(F)c3)n2)cc(N2CC3CC(C2)O3)c1` [Compound 527, 1-(3,5-difluorophenyl)-N-[3-methyl-5-(6-oxa-3-azabicyclo[3.1.1]heptan-3-yl)phenyl]-1,2,4-triazol-3-amine], under setting [2], the fold induction at 1 µM lay in the range of 100 to 1000 and the fold induction at 10 µM fell in the range of 100 to 1000.

As for `CCC1CN(c2cc(C)cc(Nc3ncn(-c4cc(F)cc(F)c4)n3)c2)CCN1CC(C)O` (centres unmarked) [Compound 1056, 1-[4-[3-[[1-(3,5-difluorophenyl)-1,2,4-triazol-3-yl]amino]-5-methyl-phenyl]-2-ethyl-piperazin-1-yl]propan-2-ol], under setting [1], the fold induction at 1 µM lay within 1 to 10 and the fold induction at 10 µM was no more than 1.

For `Cc1cc(Nc2ncn(-c3ccc(C#N)cc3)n2)cc(N2CCN(C)CC2)c1` [Compound 81, 4-[3-[3-methyl-5-(4-methylpiperazin-1-yl)anilino]-1,2,4-triazol-1-yl]benzonitrile], under setting [3], the fold induction at 1 µM lay in the range of 1 to 10. Also, the fold induction at 10 µM under setting [4] is no more than 1.

As for `C1=C(c2cc(Nc3ncn(-c4ccccc4)n3)cc(C3=CCOC3)c2)COC1` [Compound 234, N-[3,5-bis(2,5-dihydrofuran-3-yl)phenyl]-1-phenyl-1,2,4-triazol-3-amine], the fold induction at 1 µM under setting [3] is 1 to 10. Moreover, the fold induction at 10 µM under setting [4] was in the range of 100 to 1000.

On to `COC1CN(c2cc(F)cc(-n3cnc(Nc4cc(C5CC5)cc(N5CCN(C6COC6)CC5)c4)n3)c2)C1` [Compound 494, N-[3-cyclopropyl-5-[4-(oxetan-3-yl)piperazin-1-yl]phenyl]-1-[3-fluoro-5-(3-methoxyazetidin-1-yl)phenyl]-1,2,4-triazol-3-amine], for which, under setting [2], the fold induction at 1 µM lay within 100 to 1000 and the fold induction at 10 µM is 10 to 100.

Regarding `Cc1cc(Nc2ncn(-c3cc(F)cc(F)c3)n2)cc(N2CCN(C)CC2)c1` [Compound 37, 1-(3,5-difluorophenyl)-N-[3-methyl-5-(4-methylpiperazin-1-yl)phenyl]-1,2,4-triazol-3-amine], under setting [3], the fold induction at 1 µM fell in the range of 100 to 1000. Moreover, under setting [4], the fold induction at 10 µM was no more than 1.
